Measured values reported in patent US20170258970A1, “POLYMER-DRUG CONJUGATE BASED ON A POLYISOOLEFIN-BASED COPOLYMER” (ARLANXEO Singapore Pte. Ltd., priority 2014, published 2017).

Tested on: C2C12 mouse myoblast cells
Test: MTT assay of film leachate toxicity
Format: cell-based
Conditions: 24 h exposure
Experimental: Toxicity studies were also performed using the MTT assay to evaluate whether films of 3.0a-c on stainless steel would release toxic levels of paclitaxel or any other leachate during a defined incubation period in cell culture media.
Preparation of leachate: Test samples were melt-pressed to a thickness of 0.4 mm. The melt pressed film was then cut into squares of 1 cm×1 cm. Samples were sterilized by washing with 70% ethanol and subsequently dried for 2 h under UV light. […]
MTT assay: C2C12 mouse myoblast cells were seeded in a Nunclon™ 96-well U bottom transparent polystrol plate to obtain 10,000 cells/well in 100 μL of DMEM containing serum, glutamax and antibiotics as described above. […] After shaking (1 second, 2 mm amp, 654 rpm), the absorbance of the wells at 540 nm was read using an M1000-Pro plate reader (Tecan). The absorbance of wells not containing cells but treated by all of the above steps was subtracted as a background and the cell viability was calculated relative to wells containing cells that were exposed to just culture medium. No (0%) cell viability was detected for the cells exposed to the highest concentrations of the positive control sodium lauryl sulfate, confirming the sensitivity of the assay.

`CCCCCCCCCCCCOS(=O)(=O)[O-].[Na+]` [SDS, sodium dodecyl sulfate] was tested, and the cell viability (at 0.2 μg/mL) was less than 10% and the cell viability (highest concentrations of the positive control) was 0%.
